Measured values published in PMC5406018, “TCR stimulation strength is inversely associated with establishment of functional brain-resident memory CD8 T cells during persistent viral infection” (PLoS Pathogens, 2017).
No end group written: not given here.

Molecular target: T1, MHC-I D^b (Mus musculus, UniProt P01899)
T1 construct: endogenous in cells; host or cells: RMA/S cells
T1 sequence (P01899 25-362): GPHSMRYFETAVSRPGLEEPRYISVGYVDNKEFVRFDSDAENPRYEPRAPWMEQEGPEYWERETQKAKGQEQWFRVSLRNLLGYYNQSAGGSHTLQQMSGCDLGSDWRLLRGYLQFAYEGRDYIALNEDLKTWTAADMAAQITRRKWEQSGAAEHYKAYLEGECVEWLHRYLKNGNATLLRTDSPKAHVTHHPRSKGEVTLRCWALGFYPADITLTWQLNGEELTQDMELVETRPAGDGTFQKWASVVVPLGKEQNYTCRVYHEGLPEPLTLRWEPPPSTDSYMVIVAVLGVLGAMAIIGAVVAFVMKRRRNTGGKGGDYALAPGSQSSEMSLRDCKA
T1 sequence (P01887 21-119 partner): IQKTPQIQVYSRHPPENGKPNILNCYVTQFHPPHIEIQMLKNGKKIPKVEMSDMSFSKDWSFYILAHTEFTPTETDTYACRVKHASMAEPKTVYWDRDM
Assay: RMA/S MHC-I stabilization assay
Conditions: RMA/S cells cultured overnight at 26°C, peptide 1 h at RT then 2 h at 37°C; anti-D^b gMFI, percent of maximum; unit inferred; read-out: MHC-I D^b EC50 (MHC-I binding and stabilization)
Experimental: Fig 1 Characterizing the T cell response to analogues of a subdominant CD8 T cell epitope. (A) RMA/S cells were cultured overnight at 26°C. Cells were incubated with the indicated dose of peptide for 1 h at RT followed by incubation at 37C for 2 h. […] (B) RMA/S cells were cultured overnight at […] in 100 μM of peptide. Cells were then resuspended in fresh media, incubated at 37C, and sampled hourly for 4 h. […] Nuclear Nur77 (C) and intracellular IFNγ expression (D) shown. […] All data plotted as percent of maximal expression ± SD. […]
For MHC-I stabilization assays, RMA/S cells were cultured overnight at 26°C, resuspended in RPMI containing 10% FBS (10% RPMI) and peptides of different concentrations, then incubated for 1 h at room temperature followed by 2 h at 37°C. […] Each hour for 4 h an aliquot of cells was stained for 30 mins at 4°C with phycoerythrin-conjugated anti-D^b (clone 28-14-8; eBioscience), acquired on a BD FACSCanto10 instrument, and the geometric mean fluorescence intensity (gMFI) determined using FlowJo Software (Tree Star). The percent maximum gMFI was calculated as (gMFI^peptide-gMFI^no peptide)/(gMFI^max- gMFI^no peptide) x 100. EC50 and T1/2 were calculated using Prism software (GraphPad, La Jolla CA).

Row | Sequence | EC50 [nM]
1 | MGVANLDNL [LT638] | 259
2 | QGINNLDNL [TagV] | 175
